Source: US20260138961A1, “MODULATORS OF MITOCHONDRIAL DNA REPLICATION” (Pretzel Therapeutics, Inc., priority 2022, published 2026)

Biological target: T1, POLγA:G848S (Homo sapiens, UniProt P54098, G848S)
T1 sequence (P54098 1-1239 G848S): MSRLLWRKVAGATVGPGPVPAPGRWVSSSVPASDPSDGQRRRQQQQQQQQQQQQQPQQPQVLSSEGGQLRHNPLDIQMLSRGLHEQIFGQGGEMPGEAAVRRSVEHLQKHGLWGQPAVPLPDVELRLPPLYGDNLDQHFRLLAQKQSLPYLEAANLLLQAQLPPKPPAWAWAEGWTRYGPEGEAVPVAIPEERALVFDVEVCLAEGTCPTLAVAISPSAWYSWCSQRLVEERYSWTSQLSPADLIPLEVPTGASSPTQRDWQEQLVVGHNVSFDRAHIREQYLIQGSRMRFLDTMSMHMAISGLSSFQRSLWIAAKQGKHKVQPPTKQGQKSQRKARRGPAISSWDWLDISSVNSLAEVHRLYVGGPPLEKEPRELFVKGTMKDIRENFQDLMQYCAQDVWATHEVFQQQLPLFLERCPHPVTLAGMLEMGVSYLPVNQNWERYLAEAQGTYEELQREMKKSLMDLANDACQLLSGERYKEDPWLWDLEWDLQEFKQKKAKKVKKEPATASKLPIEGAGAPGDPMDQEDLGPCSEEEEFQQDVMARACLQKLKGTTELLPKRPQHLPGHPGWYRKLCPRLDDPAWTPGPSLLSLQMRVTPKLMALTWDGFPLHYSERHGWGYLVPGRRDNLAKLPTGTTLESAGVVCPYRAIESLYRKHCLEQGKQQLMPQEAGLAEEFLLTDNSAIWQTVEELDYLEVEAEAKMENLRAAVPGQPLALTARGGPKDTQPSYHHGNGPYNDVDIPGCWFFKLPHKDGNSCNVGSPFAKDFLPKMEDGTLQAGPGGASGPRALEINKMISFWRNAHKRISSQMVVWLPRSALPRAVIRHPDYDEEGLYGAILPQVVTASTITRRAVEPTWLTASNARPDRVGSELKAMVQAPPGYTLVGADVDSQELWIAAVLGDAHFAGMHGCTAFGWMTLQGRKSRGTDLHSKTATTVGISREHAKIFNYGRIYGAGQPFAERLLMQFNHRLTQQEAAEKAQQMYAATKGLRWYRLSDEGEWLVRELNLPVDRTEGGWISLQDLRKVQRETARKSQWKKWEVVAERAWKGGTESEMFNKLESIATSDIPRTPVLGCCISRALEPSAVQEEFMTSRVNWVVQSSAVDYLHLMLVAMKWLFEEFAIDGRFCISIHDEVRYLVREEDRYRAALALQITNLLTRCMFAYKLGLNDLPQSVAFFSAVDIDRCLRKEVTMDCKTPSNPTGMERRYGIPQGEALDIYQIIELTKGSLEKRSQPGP
T1 sequence (Q9UHN1 1-485 partner): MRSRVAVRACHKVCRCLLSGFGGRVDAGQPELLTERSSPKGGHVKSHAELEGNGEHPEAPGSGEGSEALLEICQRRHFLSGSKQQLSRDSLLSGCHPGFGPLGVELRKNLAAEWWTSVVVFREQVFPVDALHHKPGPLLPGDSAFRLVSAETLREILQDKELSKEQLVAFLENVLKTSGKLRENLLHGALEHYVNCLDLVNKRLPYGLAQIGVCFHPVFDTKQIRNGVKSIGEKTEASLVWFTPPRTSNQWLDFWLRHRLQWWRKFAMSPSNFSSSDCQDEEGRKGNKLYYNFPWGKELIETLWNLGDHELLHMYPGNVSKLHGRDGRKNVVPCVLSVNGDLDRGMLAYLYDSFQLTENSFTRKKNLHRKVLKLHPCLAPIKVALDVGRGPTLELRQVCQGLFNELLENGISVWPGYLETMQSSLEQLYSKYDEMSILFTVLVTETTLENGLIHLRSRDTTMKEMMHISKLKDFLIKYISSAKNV
Assay: DNA polymerization assay, POLγA:G848S mutant
Assay type: biochemical
Conditions: stimulation of polymerase activity, primed M13mp18 ssDNA, 37° C. 2 hours; read-out: G848S AC50

| Compound | AC50 [µM] |
| --- | --- |
| Cc1cc(S(=O)(=O)Nc2ccc3ccn(C)c3c2)c(C)cc1Cl [Example 72, 4-chloro-2,5-dimethyl-N-(1-methyl-1H-indol-6-yl)benzenesulfonamide] | 98 |
| Cc1nc2ccc(NS(=O)(=O)c3cc(C)c(Cl)cc3C)cc2s1 [Example 73, 4-chloro-2,5-dimethyl-N-(2-methylbenzo[d]thiazol-6-yl)benzenesulfonamide] | 14 |
| Cc1cc(S(=O)(=O)Nc2ccc3nc(-c4ccccc4)sc3c2)c(C)cc1Cl [Example 74, 4-chloro-2,5-dimethyl-N-(2-phenylbenzo[d]thiazol-6-yl)benzenesulfonamide] | > 100 |
| Cc1nc2cc(NS(=O)(=O)c3cc(C)c(Cl)cc3C)ccc2o1 [Example 75, 4-chloro-2,5-dimethyl-N-(2-methylbenzo[d]oxazol-5-yl)benzenesulfonamide] | > 100 |
| Cc1cc(S(=O)(=O)Nc2cccc(-c3ncc(C4CC4)s3)c2)c(C)cc1Cl [Example 76, 4-chloro-N-(3-(5-cyclopropylthiazol-2-yl)phenyl)-2,5-dimethylbenzenesulfonamide] | 3 |
| Cc1cc(S(=O)(=O)Nc2ccccc2-c2ncco2)c(C)cc1Cl [Example 77, 4-chloro-2,5-dimethyl-N-(2-(oxazol-2-yl)phenyl)benzenesulfonamide] | > 100 |
| Cc1cnc(-c2cccc(S(=O)(=O)Nc3cc(C)c(Cl)cc3C)c2)s1 [Example 78, N-(4-chloro-2,5-dimethylphenyl)-3-(5-methylthiazol-2-yl)benzenesulfonamide] | > 10 |
| Cc1cnc(-c2ccccc2NS(=O)(=O)c2cc(C)c(Cl)cc2C)s1 [Example 79, 4-chloro-2,5-dimethyl-N-(2-(5-methylthiazol-2-yl)phenyl)benzenesulfonamide] | > 10 |
| Cc1csc(-c2ccccc2NS(=O)(=O)c2cc(C)c(Cl)cc2C)n1 [Example 80, 4-chloro-2,5-dimethyl-N-(2-(4-methylthiazol-2-yl)phenyl)benzenesulfonamide] | > 10 |
| Cc1cc(S(=O)(=O)Nc2csc(-c3ccccc3)n2)c(C)cc1Cl [Example 81, 4-chloro-2,5-dimethyl-N-(2-phenylthiazol-4-yl)benzenesulfonamide] | 2 |
| Cc1cc(S(=O)(=O)NC2CCOc3c(Cl)cccc32)c(C)cc1Cl (stereo not drawn) [Example 82, 4-chloro-N-(8-chlorochroman-4-yl)-2,5-dimethylbenzenesulfonamide] | > 10 |
| Cc1cnc(-c2ccc(NS(=O)(=O)c3cc(C)c(Cl)cc3C)cc2)s1 [Example 83, 4-chloro-2,5-dimethyl-N-(4-(5-methylthiazol-2-yl)phenyl)benzenesulfonamide] | 3 |
| Cc1cc(S(=O)(=O)Nc2cc(-c3ccccc3)no2)c(C)cc1Cl [Example 84, 4-chloro-2,5-dimethyl-N-(3-phenylisoxazol-5-yl)benzenesulfonamide] | > 10 |
| Cc1nc2cccc(NS(=O)(=O)c3cc(C)c(Cl)cc3C)c2s1 [Example 85, 4-chloro-2,5-dimethyl-N-(2-methylbenzo[d]thiazol-7-yl)benzenesulfonamide] | > 100 |
| Cc1cc(S(=O)(=O)Nc2ccc(-c3ncc(CN(C)C)s3)cc2)c(C)cc1Cl [Example 86, 4-chloro-N-(4-(5-((dimethylamino)methyl)thiazol-2-yl)phenyl)-2,5-dimethylbenzenesulfonamide] | > 100 |
| Cc1cc(S(=O)(=O)Nc2cccc(-c3ncc(CN(C)C)s3)c2)c(C)cc1Cl [Example 87, 4-chloro-N-(3-(5-((dimethylamino)methyl)thiazol-2-yl)phenyl)-2,5-dimethylbenzenesulfonamide] | 14 |
| COC(=O)c1cnc(-c2cccc(NS(=O)(=O)c3cc(C)c(Cl)cc3C)c2)s1 [Example 88, methyl 2-(3-((4-chloro-2,5-dimethylphenyl)sulfonamido)phenyl) thiazole-5-carboxylate] | > 100 |
| Cc1cc(S(=O)(=O)Nc2cccc(-c3ncc(CO)s3)c2)c(C)cc1Cl [Example 89, 4-chloro-N-(3-(5-(hydroxymethyl)thiazol-2-yl)phenyl)-2,5-dimethylbenzenesulfonamide] | 3 |
| Cc1cc(S(=O)(=O)Nc2cccc(-c3ncc(C(=O)O)s3)c2)c(C)cc1Cl [Example 90, 2-(3-((4-chloro-2,5-dimethylphenyl)sulfonamido)phenyl) thiazole-5-carboxylic acid] | > 100 |
| Cc1cc(S(=O)(=O)Nc2cccc(C(=O)N3CCCN(C(=O)C(C)C)CC3)c2)c(C)cc1Cl [Example 91, 4-chloro-N-(3-(4-isobutyryl-1,4-diazepane-1-carbonyl)phenyl)-2,5-dimethylbenzenesulfonamide] | > 100 |
| Cc1cc(S(=O)(=O)Nc2csc(-c3ccnn3C)n2)c(C)cc1Cl [Example 182, 4-chloro-2,5-dimethyl-N-(2-(1-methyl-1H-pyrazol-5-yl)thiazol-4-yl)benzenesulfonamide] | 0.9 |
